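Cultured in 96-well plates, cells were exposed to test compound for 48 hours across five concentrations. GI50: concentration for 50% inhibition of growth.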 Activity calls are given as the source filed them. Rule as the data show it: active = GI50 up to about 1.1 µM and inactive = higher.
Assays:
Experiment in all cases: DTP human tumour cell line panel, 48 h
[1] = tested on: NCI-H23
[2] = tested on: M14
[3] = tested on: Malme-3M
[4] = tested on: HOP-92
[5] = tested on: SF-539
[6] = tested on: T47D
[7] = tested on: RPMI-8226
[8] = tested on: SK-MEL-28
[9] = tested on: MOLT-4
[10] = tested on: COLO 205
[11] = tested on: NCI/ADR-RES
[12] = tested on: NCI-H522
[13] = tested on: DU-145
[14] = tested on: KM12
[15] = tested on: SNB-19
[16] = tested on: IGROV-1
[17] = tested on: OVCAR-8
[18] = tested on: NCI-H460
[19] = tested on: ACHN
[20] = tested on: OVCAR-3

Row | Compound | GI50 [1] | GI50 [2] | GI50 [3] | GI50 [4] | GI50 [5] | GI50 [6] | GI50 [7] | GI50 [8] | GI50 [9] | GI50 [10] | GI50 [11] | GI50 [12] | GI50 [13] | GI50 [14] | GI50 [15] | GI50 [16] | GI50 [17] | GI50 [18] | GI50 [19] | GI50 [20]
1 | CN1C/C(=C\c2ccc(Cl)cc2)C(=O)/C(=C/c2ccc(Cl)cc2)C1 | 2.44 µM (inactive) | 1.73 µM (inactive) | 14.3 µM (inactive) | > 26.9 µM (inactive) | 0.512 µM (active) | 4.48 µM (inactive) | 0.193 µM (active) | 3.78 µM (inactive) | 0.326 µM (active) | 0.979 µM (active) | 1.37 µM (inactive) | 1.97 µM (inactive) | 2.54 µM (inactive) | 0.774 µM (active) | 1.25 µM (inactive) | 1.4 µM (inactive) | 0.232 µM (active) | 1.17 µM (inactive) | 3.15 µM (inactive) | 1.63 µM (inactive)
2 | CC(=O)NC1=CC(=O)c2cc(C)cc(O)c2C1=O | 1.72 µM (inactive) | 1.75 µM (inactive) | 1.9 µM (inactive) | 8.73 µM (inactive) | 6.84 µM (inactive) | 14.5 µM (inactive) | 2.92 µM (inactive) | 0.822 µM (active) | 4.85 µM (inactive) | 5.5 µM (inactive) | 5.77 µM (inactive) | 8.83 µM (inactive) | 5.82 µM (inactive) | 9.84 µM (inactive) | 28.1 µM (inactive) | 11.8 µM (inactive) | 2.44 µM (inactive) | 14.9 µM (inactive) | 9.66 µM (inactive) | 2.65 µM (inactive)
3 | COC(=O)[C@@H]1CN(C(C)=O)C(=O)N1 | > 100 µM (inactive) | > 100 µM (inactive) | > 100 µM (inactive) | > 100 µM (inactive) | > 100 µM (inactive) | 43.9 µM (inactive) | > 100 µM (inactive) | > 100 µM (inactive) | > 100 µM (inactive) | > 100 µM (inactive) | > 100 µM (inactive) | > 100 µM (inactive) | > 100 µM (inactive) | > 100 µM (inactive) | > 100 µM (inactive) | > 100 µM (inactive) | > 100 µM (inactive) | > 100 µM (inactive) | > 100 µM (inactive) | > 100 µM (inactive)
4 | N#Cc1cc(-c2nc3cc(F)ccc3s2)ccc1N | < 0.01 µM (active) | 33.6 µM (inactive) | > 79.1 µM (inactive) | 4.08 µM (inactive) | 13.3 µM (inactive) | < 0.012 µM (active) | > 100 µM (inactive) | > 100 µM (inactive) | > 100 µM (inactive) | 1.8 µM (inactive) | > 61.2 µM (inactive) | > 53.1 µM (inactive) | 53.1 µM (inactive) | 0.059 µM (active) | 18.2 µM (inactive) | < 0.0112 µM (active) | > 67.9 µM (inactive) | < 0.0226 µM (active) | 1.36 µM (inactive) | 19.8 µM (inactive)
5 | CC(C)(C)c1cc(C(=O)C2Cc3ccccc3C(=O)O2)cc(C(C)(C)C)c1O (stereo not given) | 13.9 µM (inactive) | 12.6 µM (inactive) | 14.6 µM (inactive) | 18.2 µM (inactive) | 14.2 µM (inactive) | 16.5 µM (inactive) | 5.93 µM (inactive) | 15.8 µM (inactive) | 8.55 µM (inactive) | 17.6 µM (inactive) | 13 µM (inactive) | 11.6 µM (inactive) | 14.8 µM (inactive) | 12 µM (inactive) | 11.8 µM (inactive) | 14.5 µM (inactive) | 10.4 µM (inactive) | 10.9 µM (inactive) | 17.1 µM (inactive) | 12.2 µM (inactive)
6 | C[C@H]1[C@H](C)CC[C@]2(C(=O)OC3OC(CO)C(O)C(O)C3O)CC[C@]3(C)C(=CC[C@@H]4[C@@]5(C)C[C@H]6OC(=O)c7cc(O)c(O)c(O)c7-c7c(cc(O)c(O)c7O)C(=O)O[C@@H]6C(CO)(CO)[C@@H]5CC[C@]43C)[C@H]12 (stereo not given in full) | > 100 µM (inactive) | > 100 µM (inactive) | > 100 µM (inactive) | > 100 µM (inactive) | > 100 µM (inactive) | > 74.8 µM (inactive) | > 100 µM (inactive) | > 100 µM (inactive) | > 41.5 µM (inactive) | > 100 µM (inactive) | > 100 µM (inactive) | 16.6 µM (inactive) | > 100 µM (inactive) | 42.9 µM (inactive) | 43.7 µM (inactive) | > 100 µM (inactive) | 55.8 µM (inactive) | 45.1 µM (inactive) | > 100 µM (inactive) | > 43 µM (inactive)
7 | CC(C)CNc1nc(N)nc(O)c1NC=O | > 100 µM (inactive) | > 100 µM (inactive) | > 100 µM (inactive) | > 100 µM (inactive) | > 100 µM (inactive) | > 100 µM (inactive) | > 100 µM (inactive) | > 100 µM (inactive) | > 100 µM (inactive) | > 100 µM (inactive) | > 100 µM (inactive) | > 100 µM (inactive) | > 100 µM (inactive) | > 100 µM (inactive) | > 100 µM (inactive) | > 100 µM (inactive) | > 100 µM (inactive) | > 100 µM (inactive) | > 100 µM (inactive) | > 100 µM (inactive)

Reference: ChEMBL document CHEMBL1201862, “PubChem BioAssay data set” (2004)
